Tests used:
[1] = First in-human PET/CT imaging; format: in vivo; conditions: mean SUV averaged over right and left side and all patients (three patients)
PSMA+ LNCaP cells = conditions: equal experimental set up; cited from earlier work

SUV kidneys [1]: 30.5
Compound: O=C([O-])CN(CCN(CC(=O)[O-])Cc1cc(CCC(=O)NCCCCCC(=O)NCCCC[C@H](NC(=O)N[C@@H](CCC(=O)O)C(=O)O)C(=O)O)ccc1[O-])Cc1cc(CCC(=O)O)ccc1[O-].[68Ga+3].[OH3+] [[^68Ga]Ga-PSMA-11]
Internalization±SD (PSMA+ LNCaP cells): 9.47±2.56 %IA/10^6 cells

From article PMC5695136 (Theranostics, 2017)
